Experimental data reported in patent US20220226321A1, “INHIBITOR OF MNK FOR THE TREATMENT OF NEUROPATHIC PAIN” (Board of Regents, The University of Texas System, priority 2019, published 2022).
Entries after “also recorded” stand apart in the source; their conditions may differ.

Assays:
[1] = test system: paclitaxel-treated mice; test: mechanical paw withdrawal threshold (von Frey) in paclitaxel-induced CIPN; assay type: in vivo, mouse; conditions: for mechanical allodynia / hypersensitivity, acute treatment: 10 mg/kg i.p. after full development of CIPN, 1st and 2nd injection, 1 and 3 hrs
[2] = test system: paclitaxel-treated mice; test: thermal latency (Hot/Cold plate) in paclitaxel-induced CIPN; assay type: in vivo, mouse; conditions: for thermal hyperalgesia: acute treatment
Method: Thermal and mechanical testing. Mice were housed on 12-hr light-/dark cycles with lights on at 7:00 AM. Mice had food and water available ad libitum. All behavioral experiments were performed between the hours of 9:00 AM and 6:00 PM. Mice were randomized to groups from multiple cages to avoid using mice from experimental groups that were cohabitating. Sample size was estimated as […] using a power calculation with 80% power, expectations of 50% effect size, with alpha set to 0.05. The number of animals used in each experiment was based on available animals of the appropriate sex and age but was at least n=5 for experiments. Standard deviation for power calculations was based on previously published data using similar models. Mice were habituated for 1 hr to clear acrylic behavioral chambers before beginning the experiment. Mechanical paw withdrawal thresholds were measured using the up-down method (Chaplan et al., 1994) with calibrated Von Frey filaments (Stoelting Company, Wood Dale, Ill.). Thermal latency was measured using a Hot/Cold plate setting the temperature at 49, 50 and 52° C. […] The experimenter was blinded to the genotype of the mice and drug condition in all experiments.

[3] = test system: DRG; test: measurement of protein synthesis by puromycin incorporation in DRG; assay type: in vivo, mouse; conditions: single dose 10 mg/kg
Method: Measurement of Protein Synthesis. Eight to 12-week-old wild-type and eiF4E^S209A mice were injected with puromycin (10 mg/kg via the intraperitoneal route, i.p.), and 1 hr later, DRGs were collected and processed for Western blotting using anti-puromycin monoclonal antibody (PMY-2A4, KeraFast). […] Protein synthesis was determined by measuring total lane signal from 250-15 KDa and subtracting unlabeled protein control. Signals were quantified using Image Lab (BioRad, Hercules, Calif.).

[4] = test system: SNI mice; test: mechanical withdrawal threshold (von Frey) after SNI; assay type: in vivo, mouse; conditions: 1 or 3 hours after treatment on days 1 and 5 of 7-day schedule, 10 mg/kg p.o.
Method: Surgery. Spared nerve injury (SNI) was performed by the ligation and cutting of the tibial and peroneal branches of the left sciatic nerve trifurcation, leaving the sural branch intact as previously described (Decosterd and Woolf, 2000). Sham surgeries were performed the same way but without cutting the nerve. Mice were allowed to recover for 2 weeks following surgery.
Mechanical withdrawal threshold. Tactile sensitivity was measured by probing the left outer surface of the left hindpaw with a series of calibrated von Frey filaments. Mechanical withdrawal thresholds were assessed in all animals before (baseline) and after (2 weeks) surgery to confirm neuropathy. Withdrawal thresholds were calculated using the up-down method (Chaplan et al., 1994).

[5] = test system: eIF4E phosphorylation; test: Western blot of eIF4E phosphorylation in mPFC, DRG and sciatic nerve; assay type: in vivo, mouse
Method: Western blotting. […] The mPFC and DRGs were rapidly microdissected under a dissecting microscope and then flash frozen on dry ice. The mPFC was similarly collected from a separate group of WT male and female sham and SNI mice at 21 days post injury (the same time point as all rule-shifting experiments). Frozen tissues were homogenized with a pestle in lysis buffer (50 mM Tris, pH 7.4, 150 mM NaCl, 1 mM EDTA, pH 8.0, and 1% Triton X-100) containing protease and phosphatase inhibitors (Sigma-Aldrich), and then sonicated briefly. Samples were centrifuged at 14,000 rpm for 15 min at 4° C. 10 μg of protein was loaded into each well and separated by a 10%-12% SDS-PAGE gel. Proteins were transferred to a 0.45 μm PVDF membrane (Millipore) at 30 V overnight at 4° C. The next day, membranes were blocked with 5% non-fat dry milk (NFDM) in 1× Tris buffer solution containing Tween 20 (TTBS) for 1 h. Membranes were washed in 1×TTBS 3 times for 5 min each, then incubated with primary antibody overnight at 4° C. The primary antibodies used were: phospho-eIF4E (abcam ab76256; 1:1000), GAPDH (Cell Signaling Technology 2118S; 1:10000), total eIF4E (Cell Signaling Technology 9742S; 1:1000). […] Signals were detected using Immobilon Western Chemiluminescent HRP substrate (Millipore). […]

[6] = test system: cultured mouse DRG neurons; test: microelectrode array (MEA) recordings of cultured DRG neurons exposed to IL-6; assay type: cell-based; conditions: for spontaneous firing: IL-6 100 ng/ml, tomivosertib 25 nM co-treatment
Method: Extracellular electrophysiology. Substrate-integrated microelectrode array (MEA) recordings were performed using PDL and laminin pre-treated 12-well MEA plates (Axion Biosystems, USA) and an Axion Maestro recording system. DRG sensory neurons were dissected, dissociated, and seeded as previously described (Moy et al., 2017). […] Cultures were maintained at 37° C., 5% CO2, and ≥90% humidity throughout the recordings. Briefly, 30 min baseline recordings were carried out following a 30 min acclimation period. […] Recordings were then collected continuously for 3 hours. […] Online and offline MEA data analysis was performed using Axion's AxIS, NeuralMetrics Tools, and NeuroExplorer (NeuroExplorer, USA). Physiologically relevant extracellular action potentials were defined as previously described^29.

[7] = test system: DLBCL cell lines; conditions: cited from earlier work

**Q.** For `Cc1cc(Nc2cc(N)ncn2)c(=O)n2c1C(=O)NC21CCCCC1` [eFT508, Tomivosertib], which “mechanical hypersensitivity (established CIPN), chronic treatment” value ([1]; 1 mg/kg, WT mice) is on record?
**A.** Its value is “robust relief of mechanical hypersensitivity; also recorded: reverses established CIPN”.

**Q.** What about the “tolerance to repeated dosing” value ([1]; 1 mg/kg, WT mice) of the same molecule?
**A.** The value was “No signs of tolerance; also recorded: without inducing tolerance”.

**Q.** And the “mechanical hypersensitivity, chronic treatment” value ([1]; 1 mg/kg, eIF4E^S209A mice)?
**A.** Its value is “completely absent; also recorded: completely without effect”.

**Q.** And the “mechanical allodynia / hypersensitivity, acute treatment” value [1]?
**A.** The value was “reversal; also recorded: transiently relieves mechanical allodynia”.

**Q.** And the “mechanical allodynia / hypersensitivity, acute treatment” value ([1]; listed as eFT08)?
**A.** Its value is “relieves mechanical allodynia”.

**Q.** What about the thermal hypersensitivity ([2]; 10 mg/kg after full development of CIPN) of the same molecule?
**A.** Its thermal hypersensitivity is “reversal”.

**Q.** What about the thermal hyperalgesia ([2]; at 3 hrs) of the same molecule?
**A.** The thermal hyperalgesia was “did not significantly attenuate”.

**Q.** And the thermal hyperalgesia ([2]; at 24 hrs)?
**A.** The thermal hyperalgesia was “a significant effect was observed”.

**Q.** What about the “general translation (puromycin incorporation in the DRG)” value [3] of the same molecule?
**A.** Its value is “not influenced”.

**Q.** What about the mechanical withdrawal thresholds [4] of the same molecule?
**A.** Its mechanical withdrawal thresholds is “had no effect”.

**Q.** And the “crossing of the blood-brain-barrier” value ([5]; evidenced by western blot of eIF4E phosphorylation after drug-treatment)?
**A.** Its value is “crosses the blood-brain-barrier”.

**Q.** And the “eIF4E phosphorylation in mPFC, DRG and sciatic nerve” value ([5]; naïve mice, 1 hour after 10 mg/kg i.p. or p.o.)?
**A.** Its value is “rapid and profound decrease; also recorded: significantly decreased”.

**Q.** What about the “firing, tomivosertib only vs IL-6 only group” value ([6]; 25 nM) of the same molecule?
**A.** The value was “reduction in firing”.

**Q.** And the spontaneous firing ([6]; listed as Tomivosertib)?
**A.** The spontaneous firing was “significantly reduced”.

**Q.** And the spontaneous firing ([6]; listed as tomivosertib)?
**A.** Its spontaneous firing is “attenuated”.

**Q.** What about the “firing rate at treatment time points vs baseline recording” value ([6]; tomivosertib only group) of the same molecule?
**A.** Its value is “no significant difference in firing rate”.

**Q.** And the “production of pro-inflammatory cytokines including TNFα, IL-6, IL-10 and CXCL10” value ([7]; TMD8, OCI-Ly3 and HBL1 DLBCL cell lines)?
**A.** The value was “dose-dependent decreases”.

**Q.** And the “decrease in TNFα mRNA half-life” value [7]?
**A.** Its value is 2 fold.

**Q.** What about the anti-proliferative activity ([7]; multiple DLBCL cell lines) of the same molecule?
**A.** Its anti-proliferative activity is “anti-proliferative activity”.
